One test concerns RS4;11 cells. The test can be described thus: Cell viability assay, MTS, 48 h, RS4;11. The following applies: 48 hours, read-out: IC50 (48 hours) RS4;11. Type of test: cell-based. The method, then: (§1) Acute lymphoblastic leukemia cells (MOLT-4 and RS4; 11) or small cell lung cancer (NCI-H146 or simply H146) were incubated with increasing concentrations of Bcl-xL degraders for 48 h. Cell viability was measured by tetrazolium-based MTS assay.

The subject of the next test is MOLT-4 cells. The test can be described thus: Cell viability assay, MTS, 48 h, MOLT-4. The following applies: 48 hours, read-out: IC50 (48 hours) MOLT-4. Type of test: cell-based. The protocol:
as §1

Structures are written as SMILES. Where two headings read alike, the source gives them in different places.

For `Cc1ncsc1-c1ccc([C@H](C)NC(=O)[C@@H]2C[C@@H](O)CN2C(=O)[C@@H](NC(=O)C[C@H]2CC[C@H](CC(=O)N3CCC4(CCN(CC5(C)CCC(c6ccc(Cl)cc6)=C(CN6CCN(c7ccc(C(=O)NS(=O)(=O)c8ccc(N[C@H](CCN9CCOCC9)CSc9ccccc9)c(S(=O)(=O)C(F)(F)F)c8)cc7)CC6)C5)CC4)CC3)CC2)C(C)(C)C)cc1` (relative stereo) [degrader #39], the half-inhibitory concentration (IC50) (usually the concentration that inhibits the measured activity by half) is below 50 nM in the test with RS4;11 cells and 50 to 150 nM in the test on MOLT-4 cells.
On to `Cc1ncsc1-c1ccc([C@H](C)NC(=O)[C@@H]2C[C@@H](O)CN2C(=O)[C@@H](NC(=O)CCCCCCCN2CCN(CC3(C)CCC(c4ccc(Cl)cc4)=C(CN4CCN(c5ccc(C(=O)NS(=O)(=O)c6ccc(N[C@H](CCN7CCOCC7)CSc7ccccc7)c(S(=O)(=O)C(F)(F)F)c6)cc5)CC4)C3)CC2)C(C)(C)C)cc1` (some centres unmarked) [Compound 53], for which the half-maximal inhibitory concentration (IC50) in the test on RS4;11 cells (Homo sapiens, RS4-11, 48 h) is 50 to 150 nM; in the test on MOLT-4 cells (Homo sapiens, MOLT-4, 48 h), 50 to 150 nM.
For `Cc1ncsc1-c1ccc([C@H](C)NC(=O)[C@@H]2C[C@@H](O)CN2C(=O)[C@@H](NC(=O)CCCCCN2CCN(CC3(C)CCC(c4ccc(Cl)cc4)=C(CN4CCN(c5ccc(C(=O)NS(=O)(=O)c6ccc(N[C@H](CCN7CCOCC7)CSc7ccccc7)c(S(=O)(=O)C(F)(F)F)c6)cc5)CC4)C3)CC2)C(C)(C)C)cc1` (stereo partly drawn) [Compound 55, N^1-((4′-chloro-4-methyl-6-((4-(4-(((4-(((R)-4-morpholino-1-(phenylthio)butan-2-yl)amino)-3-((trifluoromethyl)sulfonyl)phenyl)sulfonyl)carbamoyl)phenyl)piperazin-1-yl)methyl)-2,3,4,5-tetrahydro-[1,1′-biphenyl]-4-yl)methyl)-N^2—((S)-1-((2S,4R)-4-hydroxy-2-(((S)-1-(4-(4-methylthiazol-5-yl)phenyl)ethyl)carbamoyl)pyrrolidin-1-yl)-3,3-dimethyl-1-oxobutan-2-yl)dodecanediamide], the half-maximal inhibitory concentration (IC50) in the test with RS4;11 cells (Homo sapiens, RS4-11, 48 h) is below 50 nM; with MOLT-4 cells (Homo sapiens, MOLT-4, 48 h), below 50 nM.
Turning to `Cc1ncsc1-c1ccc([C@H](C)NC(=O)[C@@H]2C[C@@H](O)CN2C(=O)[C@@H](NC(=O)CCCC(=O)N2CCN(CCN(C)CC3(C)CCC(c4ccc(Cl)cc4)=C(CN4CCN(c5ccc(C(=O)NS(=O)(=O)c6ccc(N[C@H](CCN7CCOCC7)CSc7ccccc7)c(S(=O)(=O)C(F)(F)F)c6)cc5)CC4)C3)CC2)C(C)(C)C)cc1` (some centres unmarked) [compound 57], the IC50 lay in the range of 150 to 500 nM with RS4;11 cells (Homo sapiens, RS4-11, 48 h) and 150 to 500 nM in the test with MOLT-4 cells (Homo sapiens, MOLT-4, 48 h).
For the compound `Cc1ncsc1-c1ccc([C@H](C)NC(=O)[C@@H]2C[C@@H](O)CN2C(=O)[C@@H](NC(=O)CCCCC(=O)N2CCN(CCN(C)CC3(C)CCC(c4ccc(Cl)cc4)=C(CN4CCN(c5ccc(C(=O)NS(=O)(=O)c6ccc(N[C@H](CCN7CCOCC7)CSc7ccccc7)c(S(=O)(=O)C(F)(F)F)c6)cc5)CC4)C3)CC2)C(C)(C)C)cc1` (some centres unmarked) [compound 58], the IC50 in the test with RS4;11 cells (Homo sapiens, RS4-11, 48 h) fell in the range of 50 to 150 nM; in the test on MOLT-4 cells (Homo sapiens, MOLT-4, 48 h), 50 to 150 nM.
As for `Cc1ncsc1-c1ccc([C@H](C)NC(=O)[C@@H]2C[C@@H](O)CN2C(=O)[C@@H](NC(=O)CCCCCC(=O)N2CCN(CCN(C)CC3(C)CCC(c4ccc(Cl)cc4)=C(CN4CCN(c5ccc(C(=O)NS(=O)(=O)c6ccc(N[C@H](CCN7CCOCC7)CSc7ccccc7)c(S(=O)(=O)C(F)(F)F)c6)cc5)CC4)C3)CC2)C(C)(C)C)cc1` (some centres unmarked) [compound 59], the IC50 is below 50 nM in the test on RS4;11 cells (Homo sapiens, RS4-11, 48 h) and below 50 nM in the test with MOLT-4 cells (Homo sapiens, MOLT-4, 48 h).
As to `Cc1ncsc1-c1ccc([C@H](C)NC(=O)[C@@H]2C[C@@H](O)CN2C(=O)[C@@H](NC(=O)CCCCCC(=O)NCCN(C)CC2(C)CCC(c3ccc(Cl)cc3)=C(CN3CCN(c4ccc(C(=O)NS(=O)(=O)c5ccc(N[C@H](CCN6CCOCC6)CSc6ccccc6)c(S(=O)(=O)C(F)(F)F)c5)cc4)CC3)C2)C(C)(C)C)cc1` (some centres unmarked) [compound 60], the IC50 in the test on RS4;11 cells (Homo sapiens, RS4-11, 48 h) was 150 to 500 nM; with MOLT-4 cells (Homo sapiens, MOLT-4, 48 h), 150 to 500 nM.
`Cc1ncsc1-c1ccc([C@H](C)NC(=O)[C@@H]2C[C@@H](O)CN2C(=O)[C@@H](NC(=O)CCCCCCC(=O)NCCN(C)CC2(C)CCC(c3ccc(Cl)cc3)=C(CN3CCN(c4ccc(C(=O)NS(=O)(=O)c5ccc(N[C@H](CCN6CCOCC6)CSc6ccccc6)c(S(=O)(=O)C(F)(F)F)c5)cc4)CC3)C2)C(C)(C)C)cc1` (stereo partly drawn) [compound 61, N1-(2-(((4′-chloro-4-methyl-6-((4-(4-(((4-(((R)-4-morpholino-1-(phenylthio)butan-2-yl)amino)-3-((trifluoromethyl)sulfonyl)phenyl)sulfonyl)carbamoyl)phenyl)piperazin-1-yl)methyl)-2,3,4,5-tetrahydro-[1,1′-biphenyl]-4-yl)methyl)(methyl)amino)ethyl)-N8-((S)-1-((2S,4R)-4-hydroxy-2-(((S)-1-(4-(4-methylthiazol-5-yl)phenyl)ethyl)carbamoyl)pyrrolidin-1-yl)-3,3-dimethyl-1-oxobutan-2-yl)octanediamide]: the IC50 in the test with RS4;11 cells (Homo sapiens, RS4-11, 48 h) lay within 50 to 150 nM; with MOLT-4 cells (Homo sapiens, MOLT-4, 48 h), 150 to 500 nM.
The matching figures for `Cc1ncsc1-c1ccc([C@H](C)NC(=O)[C@@H]2C[C@@H](O)CN2C(=O)[C@@H](NC(=O)CCCCCCCC(=O)NCCN(C)CC2(C)CCC(c3ccc(Cl)cc3)=C(CN3CCN(c4ccc(C(=O)NS(=O)(=O)c5ccc(N[C@H](CCN6CCOCC6)CSc6ccccc6)c(S(=O)(=O)C(F)(F)F)c5)cc4)CC3)C2)C(C)(C)C)cc1` (some centres unmarked) [compound 62]: below 50 nM and 150 to 500 nM.
In the case of `Cc1ncsc1-c1ccc([C@H](C)NC(=O)[C@@H]2C[C@@H](O)CN2C(=O)[C@@H](NC(=O)CCCC(=O)N2CCN(C(=O)C3(C)CCC(c4ccc(Cl)cc4)=C(CN4CCN(c5ccc(C(=O)NS(=O)(=O)c6ccc(N[C@H](CCN7CCOCC7)CSc7ccccc7)c(S(=O)(=O)C(F)(F)F)c6)cc5)CC4)C3)CC2)C(C)(C)C)cc1` (stereo partly drawn) [compound 63, (2S,4R)-1-((2S)-2-(5-(4-(4′-chloro-4-methyl-6-((4-(4-(((4-(((R)-4-morpholino-1-(phenylthio)butan-2-yl)amino)-3-((trifluoromethyl)sulfonyl)phenyl)sulfonyl)carbamoyl)phenyl)piperazin-1-yl)methyl)-2,3,4,5-tetrahydro-[1,1′-biphenyl]-4-carbonyl)piperazin-1-yl)-5-oxopentanamido)-3,3-dimethylbutanoyl)-4-hydroxy-N—((S)-1-(4-(4-methylthiazol-5-yl)phenyl)ethyl)pyrrolidine-2-carboxamide], the half-inhibitory concentration (IC50) is above 500 nM with RS4;11 cells (Homo sapiens, RS4-11, 48 h) and above 500 nM in the test with MOLT-4 cells (Homo sapiens, MOLT-4, 48 h).
Consider `Cc1ncsc1-c1ccc([C@H](C)NC(=O)[C@@H]2C[C@@H](O)CN2C(=O)[C@@H](NC(=O)CCCCCC(=O)N2CCN(C(=O)C3(C)CCC(c4ccc(Cl)cc4)=C(CN4CCN(c5ccc(C(=O)NS(=O)(=O)c6ccc(N[C@H](CCN7CCOCC7)CSc7ccccc7)c(S(=O)(=O)C(F)(F)F)c6)cc5)CC4)C3)CC2)C(C)(C)C)cc1` (stereo partly drawn) [compound 64, (2S,4R)-1-((2S)-2-(7-(4-(4′-chloro-4-methyl-6-((4-(4-(((4-(((R)-4-morpholino-1-(phenylthio)butan-2-yl)amino)-3-((trifluoromethyl)sulfonyl)phenyl)sulfonyl)carbamoyl)phenyl)piperazin-1-yl)methyl)-2,3,4,5-tetrahydro-[1,1′-biphenyl]-4-carbonyl)piperazin-1-yl)-7-oxoheptanamido)-3,3-dimethylbutanoyl)-4-hydroxy-N—((S)-1-(4-(4-methylthiazol-5-yl)phenyl)ethyl)pyrrolidine-2-carboxamide], for which the IC50 with RS4;11 cells (Homo sapiens, RS4-11, 48 h) was 50 to 150 nM; in the test with MOLT-4 cells (Homo sapiens, MOLT-4, 48 h), 50 to 150 nM.
Take `Cc1ncsc1-c1ccc([C@H](C)NC(=O)[C@@H]2C[C@@H](O)CN2C(=O)[C@@H](NC(=O)CCCCCCC(=O)N2CCN(C(=O)C3(C)CCC(c4ccc(Cl)cc4)=C(CN4CCN(c5ccc(C(=O)NS(=O)(=O)c6ccc(N[C@H](CCN7CCOCC7)CSc7ccccc7)c(S(=O)(=O)C(F)(F)F)c6)cc5)CC4)C3)CC2)C(C)(C)C)cc1` (stereo partly drawn) [compound 65, (2S,4R)-1-((2S)-2-(8-(4-(4′-chloro-4-methyl-6-((4-(4-(((4-(((R)-4-morpholino-1-(phenylthio)butan-2-yl)amino)-3-((trifluoromethyl)sulfonyl)phenyl)sulfonyl)carbamoyl)phenyl)piperazin-1-yl)methyl)-2,3,4,5-tetrahydro-[1,1′-biphenyl]-4-carbonyl)piperazin-1-yl)-8-oxooctanamido)-3,3-dimethylbutanoyl)-4-hydroxy-N—((S)-1-(4-(4-methylthiazol-5-yl)phenyl)ethyl)pyrrolidine-2-carboxamide]: the IC50 was below 50 nM with RS4;11 cells (Homo sapiens, RS4-11, 48 h) and below 50 nM with MOLT-4 cells (Homo sapiens, MOLT-4, 48 h).
On to `Cc1ncsc1-c1ccc([C@H](C)NC(=O)[C@@H]2C[C@@H](O)CN2C(=O)[C@@H](NC(=O)CCCCCCCC(=O)N2CCN(C(=O)C3(C)CCC(c4ccc(Cl)cc4)=C(CN4CCN(c5ccc(C(=O)NS(=O)(=O)c6ccc(N[C@H](CCN7CCOCC7)CSc7ccccc7)c(S(=O)(=O)C(F)(F)F)c6)cc5)CC4)C3)CC2)C(C)(C)C)cc1` (stereo partly drawn) [compound 66, (2S,4R)-1-((2S)-2-(9-(4-(4′-chloro-4-methyl-6-((4-(4-(((4-(((R)-4-morpholino-1-(phenylthio)butan-2-yl)amino)-3-((trifluoromethyl)sulfonyl)phenyl)sulfonyl)carbamoyl)phenyl)piperazin-1-yl)methyl)-2,3,4,5-tetrahydro-[1,1′-biphenyl]-4-carbonyl)piperazin-1-yl)-9-oxononanamido)-3,3-dimethylbutanoyl)-4-hydroxy-N—((S)-1-(4-(4-methylthiazol-5-yl)phenyl)ethyl)pyrrolidine-2-carboxamide], for which the half-maximal inhibitory concentration (IC50) in the test with RS4;11 cells (Homo sapiens, RS4-11, 48 h) is below 50 nM; in the test with MOLT-4 cells (Homo sapiens, MOLT-4, 48 h), below 50 nM.

These data come from US20220169628A1 (University of Florida Research Foundation, Incorporated, priority 2019, published 2022).
